Test results published in US20210023089A1, “Compositions Useful for Treating Herpes Simplex Keratitis, and Methods Using Same” (priority 2013, published 2021).

Tests used:
[1] = system: HSV-1; experiment: HSV-1 replication (relative genome level) in normal and cancer cell lines; type: cell-based; conditions: KU-55933 10 μM
Procedure: All cells were cultured at 37° C. and 5% CO2, and supplemented with 100 U/ml penicillin and 100 μg/ml streptomycin. hTCEpi human corneal epithelial cells were cultured in KGM-2 (Lonza, Basel, Switzerland). HCE human corneal epithelial cells were cultured in DMEM/F-12 supplemented with 10% FBS. EPC2 human esophageal epithelial cells were cultured in KSFM (Carlsbad, Calif.). OKF6 human oral epithelial cells were cultured in KSFM. E5 cells, which are CV-1 cells stably expressing HSV-1 ICP4 protein, were cultured in DMEM supplemented with 10% FBS. HEK293 human embryonic kidney epithelial cells, HeLa human cervical adenocarcinoma cells, U2OS human osteosarcoma cells, H1299 human lung carcinoma cells, and SH-SY5Y human neuroblastoma cells were all obtained from American Type Culture Collection and cultured in DMEM supplemented with 10% FBS.
Total DNA was isolated from infected cells using the DNeasy Blood & Tissue Kit (QIAGEN, Hilden, Germany). Real time quantitative PCR was performed with SYBR Green (Bio-Rad, Hercules, Calif.). Target primers for UL30 (DNA polymerase catalytic subunit) and reference primers for GAPDH were used to measure genome replication. Primer sequences were provided in Alekseev et al., 2014, Invest. Ophthalm. Vis. Sci. 55:706-715). Real time PCR data were processed using the ΔΔC(t) method. […]

[2] = biological target: T1, ATM (Homo sapiens, UniProt Q13315); experiment: pATM Western blot in bleomycin-damaged ex vivo human corneas (bioavailability); type: cell-based; conditions: bleomycin 200 μg/mL 1 hour, KU-55933 10 μM 1 hour pretreatment
T1 construct: The epithelial layers were collected for protein lysates and analyzed by Western blot with antibodies against pATM (Ser1981) and total ATM; tissue Lions Eye Bank of Delaware Valley; host or cells: epithelial layer of explanted human corneas
T1 sequence (Q13315 whole entry): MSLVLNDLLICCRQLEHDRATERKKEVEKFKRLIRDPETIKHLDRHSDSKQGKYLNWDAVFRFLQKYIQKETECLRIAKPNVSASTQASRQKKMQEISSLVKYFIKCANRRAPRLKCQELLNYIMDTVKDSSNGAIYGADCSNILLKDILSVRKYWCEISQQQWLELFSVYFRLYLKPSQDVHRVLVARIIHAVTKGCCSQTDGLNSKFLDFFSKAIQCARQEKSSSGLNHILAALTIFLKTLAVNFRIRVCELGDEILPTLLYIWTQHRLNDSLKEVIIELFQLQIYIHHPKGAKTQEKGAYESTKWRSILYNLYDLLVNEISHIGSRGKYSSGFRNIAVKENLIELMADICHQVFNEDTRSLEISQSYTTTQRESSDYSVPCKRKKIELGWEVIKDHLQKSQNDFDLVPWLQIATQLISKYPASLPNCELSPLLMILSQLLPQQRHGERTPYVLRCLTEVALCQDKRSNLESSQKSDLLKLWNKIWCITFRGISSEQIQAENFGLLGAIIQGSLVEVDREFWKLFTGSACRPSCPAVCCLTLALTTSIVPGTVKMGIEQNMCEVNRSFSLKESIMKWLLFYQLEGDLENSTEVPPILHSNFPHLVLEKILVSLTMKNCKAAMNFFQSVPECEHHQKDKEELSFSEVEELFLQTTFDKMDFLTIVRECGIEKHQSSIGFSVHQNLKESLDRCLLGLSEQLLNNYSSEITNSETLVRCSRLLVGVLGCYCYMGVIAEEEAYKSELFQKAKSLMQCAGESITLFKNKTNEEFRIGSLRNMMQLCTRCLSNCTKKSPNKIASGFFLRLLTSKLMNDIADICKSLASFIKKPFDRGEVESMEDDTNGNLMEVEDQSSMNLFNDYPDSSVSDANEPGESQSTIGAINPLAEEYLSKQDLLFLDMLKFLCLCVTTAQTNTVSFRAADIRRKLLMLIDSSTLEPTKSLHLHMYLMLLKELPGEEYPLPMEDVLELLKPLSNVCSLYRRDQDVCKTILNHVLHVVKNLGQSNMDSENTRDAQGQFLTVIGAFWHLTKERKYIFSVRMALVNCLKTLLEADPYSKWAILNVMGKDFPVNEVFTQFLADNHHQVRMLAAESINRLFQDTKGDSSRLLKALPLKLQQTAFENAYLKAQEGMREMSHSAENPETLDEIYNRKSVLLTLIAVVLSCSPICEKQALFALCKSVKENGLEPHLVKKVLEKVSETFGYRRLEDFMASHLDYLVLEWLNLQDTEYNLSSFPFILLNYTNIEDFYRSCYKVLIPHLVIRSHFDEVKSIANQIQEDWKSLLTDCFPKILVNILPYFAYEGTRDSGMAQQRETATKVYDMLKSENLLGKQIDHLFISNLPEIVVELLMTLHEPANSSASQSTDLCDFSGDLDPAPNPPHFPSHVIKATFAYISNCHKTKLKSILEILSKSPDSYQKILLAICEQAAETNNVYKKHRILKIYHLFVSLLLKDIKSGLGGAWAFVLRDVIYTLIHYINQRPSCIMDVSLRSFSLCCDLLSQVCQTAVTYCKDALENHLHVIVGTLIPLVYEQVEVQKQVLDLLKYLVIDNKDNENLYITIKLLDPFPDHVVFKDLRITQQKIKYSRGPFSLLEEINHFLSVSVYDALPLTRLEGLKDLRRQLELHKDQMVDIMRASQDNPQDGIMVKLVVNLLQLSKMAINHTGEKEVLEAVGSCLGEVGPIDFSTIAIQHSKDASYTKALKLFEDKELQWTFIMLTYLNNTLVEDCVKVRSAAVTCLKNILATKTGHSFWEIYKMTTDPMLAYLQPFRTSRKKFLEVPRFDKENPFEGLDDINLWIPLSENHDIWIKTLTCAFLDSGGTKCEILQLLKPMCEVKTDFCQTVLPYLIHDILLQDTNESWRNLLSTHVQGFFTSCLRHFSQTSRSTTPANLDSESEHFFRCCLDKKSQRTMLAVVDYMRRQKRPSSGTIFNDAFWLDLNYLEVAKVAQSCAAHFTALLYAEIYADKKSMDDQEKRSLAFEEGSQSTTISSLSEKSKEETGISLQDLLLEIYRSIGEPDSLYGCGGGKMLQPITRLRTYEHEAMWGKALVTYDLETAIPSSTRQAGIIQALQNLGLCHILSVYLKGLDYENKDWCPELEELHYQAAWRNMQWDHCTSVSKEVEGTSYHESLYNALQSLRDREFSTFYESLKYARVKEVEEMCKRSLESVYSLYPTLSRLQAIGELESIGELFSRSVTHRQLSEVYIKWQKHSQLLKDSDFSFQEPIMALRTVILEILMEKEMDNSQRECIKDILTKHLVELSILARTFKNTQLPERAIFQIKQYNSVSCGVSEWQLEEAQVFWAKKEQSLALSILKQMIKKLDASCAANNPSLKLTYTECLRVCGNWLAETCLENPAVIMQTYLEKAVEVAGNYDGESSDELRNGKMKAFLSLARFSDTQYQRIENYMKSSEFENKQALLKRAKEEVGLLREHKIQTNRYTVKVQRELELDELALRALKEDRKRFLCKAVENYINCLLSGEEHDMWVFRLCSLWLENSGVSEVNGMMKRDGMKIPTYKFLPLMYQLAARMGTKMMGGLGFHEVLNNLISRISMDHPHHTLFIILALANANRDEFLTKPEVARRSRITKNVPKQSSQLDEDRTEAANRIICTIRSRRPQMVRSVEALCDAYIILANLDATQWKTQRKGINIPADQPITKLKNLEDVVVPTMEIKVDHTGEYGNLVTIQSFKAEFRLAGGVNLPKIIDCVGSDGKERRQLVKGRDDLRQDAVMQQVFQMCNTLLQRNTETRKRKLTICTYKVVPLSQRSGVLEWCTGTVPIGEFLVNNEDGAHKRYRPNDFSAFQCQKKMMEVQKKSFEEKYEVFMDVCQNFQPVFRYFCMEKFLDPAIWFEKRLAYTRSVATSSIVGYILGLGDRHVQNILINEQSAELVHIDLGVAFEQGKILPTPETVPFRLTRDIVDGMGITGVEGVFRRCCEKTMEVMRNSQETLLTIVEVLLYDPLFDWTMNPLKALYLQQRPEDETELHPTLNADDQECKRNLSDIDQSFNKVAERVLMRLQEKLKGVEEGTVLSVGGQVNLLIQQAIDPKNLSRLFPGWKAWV
Procedure: Human corneas were obtained from the Lions Eye Bank of Delaware Valley. Rabbit corneas were excised from intact fresh eyeballs of young (8-12 weeks) albino rabbits (Pel-Freez Biologicals, Rogers, Ark.). Protocol (Alekseev et al., 2012, J Vis Exp 69:e3631) for ex vivo corneal culture, infection, and treatment was followed closely. Briefly, corneoscleral buttons were excised and rinsed in PBS containing 200 U/mL penicillin and 200 μg/mL streptomycin. The endothelial concavity was filled with culture medium containing 1% low melting temperature agarose. The corneas were cultured epithelial side up in MEM medium supplemented with nonessential amino acids (1×), 2 mM […], 200 U/mL penicillin, and 200 μg/mL streptomycin. The next day, they were infected with 1×10^4 plaque forming units (PFU)/cornea of strain KOS HSV-1 for 1 hour, rinsed, and overlaid with fresh medium. Drug treatments were administered at the same concentrations as for cultured cells. For KU-55933 bioavailability assessment, corneas were treated with bleomycin (200 μg/mL) for 1 hour. […] Treatment toxicity was assessed by briefly staining the cornea with fluorescein (1% wt/vol in PBS) and imaging the epithelial defects with 464-nm wavelength blue light (LDP LLC, Carlstadt, N.J.).
Standard protocol was followed for Western blot analysis. […] Protein concentrations were measured by bicinchoninic acid (BCA) assay. […]

[3] = system: HSV-1; experiment: qRT-PCR of viral transcripts in HSV-1 infected hTCEpi cells; type: cell-based, HSV-1 (KOS strain); conditions: MOI 0.1, 10 μM, 16 hpi
Procedure: The following strains of HSV-1 were used: KOS, ICPO-null, HFEM, and tsB7. Subconfluent monolayers of cells were grown in six-well plates. Drug treatments were administered 45 minutes prior to infection and continued for the entire duration of each experiment. Unless indicated otherwise, KU-55933 (Batch No. 5, 99.7% purity; Tocris Bioscience, Bristol, UK) was used at 10 μM final concentration, phosphonoacetic acid (PAA) at 400 μg/mL (Sigma-Aldrich, St. Louis, Mo.), and acyclovir at 50 μg/mL (Sigma-Aldrich). KU-55933 was dissolved in dimethyl sulfoxide (DMSO), and the final concentration of DMSO in both KU-55933 and mock treatment in the in vitro and the ex vivo experiments was 0.1%.
Viral genome replication and transcription were measured by quantitative PCR (qPCR). Total DNA and RNA from infected cells were isolated using the DNeasy Blood & Tissue Kit and the RNeasy Mini Kit, respectively (QIAGEN, Hilden, Germany). RNA was converted to cDNA using qScript (Quanta BioSciences, Gaithersburg, Md.). Real-time qPCR was performed with SYBR Green (Bio-Rad, Hercules, Calif.). […] Transcription of the three gene families was measured with primers for RL2 (ICPO), UL30 (DNA polymerase catalytic subunit), and UL44 (gC), with reference primers for the 18S ribosomal RNA (rRNA).

O=c1cc(-c2cccc3c2Sc2ccccc2S3)oc(N2CCOCC2)c1 [KU-55933, 2-(morpholin-4-yl)-6-(thianthren-1-yl)-pyran-4-one]
HSV-1 replication in transformed or cancer cell lines ([1]; HeLa, U2OS, H1299, SH-SY5Y): little effect
HSV-1 replication in normal cell types ([1]; hTCEpi, HCE, OKF6, EPC2): potently suppressed
pATM level in corneal epithelium [2]: completely eliminated
levels of viral transcripts (ICP0, DNA polymerase, glycoprotein C) [3]: reduced
